Key:
[1] = target: T1, Disintegrin and metalloproteinase domain-containing protein 17 (Homo sapiens, UniProt P78536); assay: Inhibition of LPS-stimulated TNF production in THP cells at 1 uM; format: functional, cell-based
Interstitial collagenase = target: T2, Interstitial collagenase (Homo sapiens, UniProt P03956); assay: Inhibition of MMP1
T2 sequence (P03956 whole entry): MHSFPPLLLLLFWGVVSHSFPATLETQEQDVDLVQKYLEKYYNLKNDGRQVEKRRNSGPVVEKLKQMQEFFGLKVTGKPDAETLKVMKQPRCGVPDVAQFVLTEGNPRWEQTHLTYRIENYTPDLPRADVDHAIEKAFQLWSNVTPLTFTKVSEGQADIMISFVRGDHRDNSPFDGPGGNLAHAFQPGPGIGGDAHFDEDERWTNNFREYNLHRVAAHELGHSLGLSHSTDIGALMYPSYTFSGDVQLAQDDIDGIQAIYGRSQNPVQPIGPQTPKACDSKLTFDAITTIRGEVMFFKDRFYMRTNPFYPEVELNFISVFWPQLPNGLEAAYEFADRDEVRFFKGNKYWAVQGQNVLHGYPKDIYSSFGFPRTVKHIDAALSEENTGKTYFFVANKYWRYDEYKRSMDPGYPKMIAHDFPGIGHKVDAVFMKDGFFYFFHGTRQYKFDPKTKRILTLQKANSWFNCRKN

[2] = target: T1, Disintegrin and metalloproteinase domain-containing protein 17; assay: Inhibition of LPS-stimulated TNF production in THP cells at 3 uM; format: functional, cell-based
Collagenase 3 = Collagenase 3 (Homo sapiens, UniProt P45452); assay: Inhibition of MMP13
[3] = target: T1, Disintegrin and metalloproteinase domain-containing protein 17; assay: Inhibition of TACE
Mus musculus [4] = assay: Inhibition of LPS-stimulated TNFalpha production in mouse at 50 mg/kg, po; format: functional
[5] = Bioavailability in dog at 10 mg/kg; format: ADME, organism-based, Canis lupus familiaris; conditions: in vivo
Mus musculus [6] = species: Mus musculus; assay: Inhibition of LPS-stimulated TNFalpha production in mouse; format: functional
[7] = Permeability across Caco-2 cell membrane; format: ADME, cell-based; conditions: human
[8] = Bioavailability in mouse at 10 mg/kg; format: ADME, organism-based; conditions: in vivo
[9] = Bioavailability in rat at 10 mg/kg; format: ADME, organism-based; conditions: in vivo

T1 sequence (P78536 whole entry, the tested form may be a part): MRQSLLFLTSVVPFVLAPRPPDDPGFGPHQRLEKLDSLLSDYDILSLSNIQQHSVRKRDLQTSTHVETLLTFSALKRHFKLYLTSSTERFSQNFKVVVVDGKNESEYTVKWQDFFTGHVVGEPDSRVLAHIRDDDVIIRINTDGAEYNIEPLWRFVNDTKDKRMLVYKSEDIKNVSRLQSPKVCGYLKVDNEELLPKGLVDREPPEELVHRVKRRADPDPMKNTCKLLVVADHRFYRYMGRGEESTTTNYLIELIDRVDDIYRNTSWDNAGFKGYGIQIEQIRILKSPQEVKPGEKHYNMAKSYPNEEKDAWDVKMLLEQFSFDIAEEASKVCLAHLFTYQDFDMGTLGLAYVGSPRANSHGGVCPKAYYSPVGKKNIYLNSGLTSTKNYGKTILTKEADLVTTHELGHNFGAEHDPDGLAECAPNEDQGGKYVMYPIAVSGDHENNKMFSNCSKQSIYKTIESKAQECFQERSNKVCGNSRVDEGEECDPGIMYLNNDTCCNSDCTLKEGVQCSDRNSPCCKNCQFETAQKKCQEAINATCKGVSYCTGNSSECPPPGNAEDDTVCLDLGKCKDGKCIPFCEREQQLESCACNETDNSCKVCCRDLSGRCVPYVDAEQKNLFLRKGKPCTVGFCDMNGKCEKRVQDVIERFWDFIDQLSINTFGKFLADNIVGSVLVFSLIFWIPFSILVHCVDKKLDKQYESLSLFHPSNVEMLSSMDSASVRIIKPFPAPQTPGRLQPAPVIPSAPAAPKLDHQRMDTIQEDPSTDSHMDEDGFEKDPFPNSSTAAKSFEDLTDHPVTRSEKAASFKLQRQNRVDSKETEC

## CC1(C)SCCN(S(=O)(=O)c2ccc(OCC#CCN)cc2)[C@H]1C(=O)NO
[1]
  inhibition: 10%
Interstitial collagenase
  IC50: 97 nM
[2]
  inhibition: 40%
Collagenase 3
  IC50: 8 nM

## C#CC#CCOc1ccc(S(=O)(=O)N2CCSC(C)(C)[C@@H]2C(=O)NO)cc1
[1]
  inhibition: 62%
Interstitial collagenase
  IC50: 6 nM
[2]
  inhibition: 88%

## CC#CCOc1ccc(S(=O)(=O)N2C[C@H](CCN(CC)CC)SC(C)(C)[C@@H]2C(=O)NO)cc1
[1]
  inhibition: 67%
[3]
  IC50: 143 nM
Interstitial collagenase
  IC50: 33 nM
[2]
  inhibition: 87%
Collagenase 3
  IC50: 48 nM
Mus musculus [4]
  inhibition in vivo at 50 mg/kg: ≥ 95%

## CC(C)(C)OC(=O)NCC#CCOc1ccc(S(=O)(=O)N2CCSC(C)(C)[C@@H]2C(=O)NO)cc1
[1]
  inhibition: 53%
[3]
  IC50: 74 nM
Interstitial collagenase
  IC50: 26 nM
[2]
  inhibition: 79%
Collagenase 3
  IC50: 4 nM

## CC1(C)SCCN(S(=O)(=O)c2ccc(OCC#CCCO)cc2)[C@H]1C(=O)NO
[1]
  inhibition: 25%
[3]
  IC50: 62 nM
Interstitial collagenase
  IC50: 35 nM
[2]
  inhibition: 57%
Collagenase 3
  IC50: 14 nM

## C#CCCOc1ccc(S(=O)(=O)N2CCSC(C)(C)[C@@H]2C(=O)NO)cc1
[1]
  inhibition: 36%
[3]
  IC50: 32 nM
Interstitial collagenase
  IC50: 2 nM
[2]
  inhibition: 64%
Collagenase 3
  IC50: 1 nM

## CC#CCOc1ccc(S(=O)(=O)N2C[C@H](CN)SC(C)(C)[C@@H]2C(=O)NO)cc1
[1]
  inhibition: 78%
[2]
  inhibition: 94%
Mus musculus [4]
  inhibition in vivo at 50 mg/kg: ≥ 95%

## CC(C)(C)OC(=O)NCCCC#CCOc1ccc(S(=O)(=O)N2CCSC(C)(C)[C@@H]2C(=O)NO)cc1
[1]
  inhibition: 5%
[2]
  inhibition: 27%
Collagenase 3
  IC50: 2 nM

## CC#CCOc1ccc(S(=O)(=O)N2C[C@H](CNS(C)(=O)=O)SC(C)(C)[C@@H]2C(=O)NO)cc1
[1]
  inhibition: 81%
[3]
  IC50: 11 nM
Interstitial collagenase
  IC50: 19 nM
[2]
  inhibition: 91%
Collagenase 3
  IC50: 14 nM

## CCCCOc1ccc(S(=O)(=O)N2CCSC(C)(C)[C@@H]2C(=O)NO)cc1
[1]
  inhibition: 11%
[3]
  IC50: 42 nM
Interstitial collagenase
  IC50: 7 nM
[2]
  inhibition: 38%
Collagenase 3
  IC50: 9 nM

## CC1(C)SCCN(S(=O)(=O)c2ccc(OCC#CCCCCO)cc2)[C@H]1C(=O)NO
[1]
  inhibition: 52%
[2]
  inhibition: 77%

## CC1(C)SCCN(S(=O)(=O)c2ccc(OCC#CCCN)cc2)[C@H]1C(=O)NO
[1]
  inhibition: 0%
[3]
  IC50: 138 nM
Interstitial collagenase
  IC50: 1050 nM
[2]
  inhibition: 4%
Collagenase 3
  IC50: 27 nM

## CC1(C)SCCN(S(=O)(=O)c2ccc(OCC#CCCCCN)cc2)[C@H]1C(=O)NO
[1]
  inhibition: 13%
[2]
  inhibition: 37%
Collagenase 3
  IC50: 7 nM

## CC#CCOc1ccc(S(=O)(=O)N2C[C@H](CCO)SC(C)(C)[C@@H]2C(=O)NO)cc1
[1]
  inhibition: 74%
[3]
  IC50: 15 nM
Interstitial collagenase
  IC50: 21 nM
[2]
  inhibition: 90%
Collagenase 3
  IC50: 23 nM
Mus musculus [4]
  inhibition in vivo at 50 mg/kg: ≥ 95%

## CCCCC#CCOc1ccc(S(=O)(=O)N2CCSC(C)(C)[C@@H]2C(=O)NO)cc1
[1]
  inhibition: 48%
[3]
  IC50: 23 nM
Interstitial collagenase
  IC50: 29 nM
[2]
  inhibition: 82%
Collagenase 3
  IC50: 7 nM

## CC(C)(C)OC(=O)NCCCCC#CCOc1ccc(S(=O)(=O)N2CCSC(C)(C)[C@@H]2C(=O)NO)cc1
[1]
  inhibition: 40%
[2]
  inhibition: 70%
Collagenase 3
  IC50: 4 nM

## CC1(C)SCCN(S(=O)(=O)c2ccc(OCC#CCO)cc2)[C@H]1C(=O)NO
[5]
  bioavailability: 36%
Mus musculus [6]
  ED50: 5 mg/kg
[7]
  Papp: 2.2 ×10⁻⁶ cm/s
[1]
  IC50: 140 nM
  inhibition: 89%
[8]
  bioavailability: 24%
[2]
  inhibition: 95%
[9]
  bioavailability: 8%
Collagenase 3
  IC50: 8 nM
Mus musculus [4]
  inhibition in vivo at 50 mg/kg: ≥ 95%

## CC1(C)SCCN(S(=O)(=O)c2ccc(OCC#CCCCO)cc2)[C@H]1C(=O)NO
[1]
  inhibition: 19%
[3]
  IC50: 40 nM
Interstitial collagenase
  IC50: 159 nM
[2]
  inhibition: 51%
Collagenase 3
  IC50: 86 nM

## C#CCCCOc1ccc(S(=O)(=O)N2CCSC(C)(C)[C@@H]2C(=O)NO)cc1
[1]
  inhibition: 16%
[3]
  IC50: 40 nM
Interstitial collagenase
  IC50: 11 nM
[2]
  inhibition: 38%
Collagenase 3
  IC50: 8 nM

## C#CCOc1ccc(S(=O)(=O)N2CCSC(C)(C)[C@@H]2C(=O)NO)cc1
[1]
  inhibition: 76%
Interstitial collagenase
  IC50: 1 nM
[2]
  inhibition: 91%
Collagenase 3
  IC50: 1 nM

## CC(C)(C)OC(=O)NCCC#CCOc1ccc(S(=O)(=O)N2CCSC(C)(C)[C@@H]2C(=O)NO)cc1
[1]
  inhibition: 14%
[3]
  IC50: 112 nM
Interstitial collagenase
  IC50: 300 nM
[2]
  inhibition: 37%
Collagenase 3
  IC50: 7 nM

## CC#CCOc1ccc(S(=O)(=O)N2CCSC(C)(C)[C@@H]2C(=O)NO)cc1
[5]
  bioavailability: 0%
[1]
  inhibition: 87%
[8]
  bioavailability: 71%
[2]
  inhibition: 94%
[9]
  bioavailability: 5%

## CC#CCOc1ccc(S(=O)(=O)N2C[C@H](CC(=O)O)SC(C)(C)[C@@H]2C(=O)NO)cc1
[1]
  inhibition: 73%
[2]
  inhibition: 89%
Collagenase 3
  IC50: 7 nM

## CC#CCOc1ccc(S(=O)(=O)N2C[C@H](CC(N)=O)SC(C)(C)[C@@H]2C(=O)NO)cc1
[1]
  inhibition: 76%
[2]
  inhibition: 91%

## C/C=C/COc1ccc(S(=O)(=O)N2CCSC(C)(C)[C@@H]2C(=O)NO)cc1
[1]
  inhibition: 50%
[3]
  IC50: 35 nM
Interstitial collagenase
  IC50: 7 nM
[2]
  inhibition: 80%
Collagenase 3
  IC50: 2 nM

## CC1(C)SCCN(S(=O)(=O)c2ccc(OCC#CCCCN)cc2)[C@H]1C(=O)NO
[1]
  inhibition: 0%
[2]
  inhibition: 22%
Collagenase 3
  IC50: 9 nM

— ChEMBL document CHEMBL1139018, “Acetylenic TACE inhibitors. Part 3: Thiomorpholine sulfonamide hydroxamates” (Bioorg Med Chem Lett, 2006)
